Values of other authors in patent US20220079896A1, “DELAYED RELEASE COMPOSITIONS” (AMNEAL COMPLEX PRODUCTS RESEARCH LLC, priority 2020, published 2022).

| Compound | mean single-dose terminal elimination half-life |
| --- | --- |
| NC(=O)C[S@@+]([O-])C(c1ccccc1)c1ccccc1 [Armodafinil, (−)-2-[(R)-(diphenylmethyl)sulfinyl] acetamide] | approximately 13 hours |
| NC(=O)C[S+]([O-])C(c1ccccc1)c1ccccc1 (centres unmarked) [modafinil] | approximately 13 hours |
